Reference: article PMC9814568, “Peptide transporter structure reveals binding and action mechanism of a potent PEPT1 and PEPT2 inhibitor” (Communications Chemistry, 2022)

Assays:
[1] = system: C[C@H](N)C(=O)N[C@@H](C)C(=O)O; assay: [3H]Ala-Ala uptake kinetics (Km) in E. coli cells overexpressing the transporter; format: cell-based, Yersinia enterocolitica
YePEPT [2] = biological target: T1, YePEPT (Yersinia enterocolitica, UniProt A0A2R9TD79, K314Q/P315G); assay: label-free DSF thermal shift at […] LZNV (no Kd); format: binding
T1 construct: gene YEP4_02370; YePEPT^K314Q-P315G, detergent-purified, His-tagged

YePEPT [3] = biological target: T2, YePEPT (Yersinia enterocolitica, UniProt A0A2R9TD79, K314A/S412A); assay: label-free DSF thermal shift at […] LZNV (no Kd); format: binding
T2 construct: gene YEP4_02370; YePEPT^K314A-S412A, detergent-purified, His-tagged

YePEPT [4] = biological target: T3, YePEPT (Yersinia enterocolitica, UniProt A0A2R9TD79, K314A); assay: co-crystal structure at […] Å; also thermal shift; IC50 from [3H]Ala-Ala uptake in E. coli cells; format: cell-based
T3 construct: gene YEP4_02370; YePEPT-K314A, C-terminal HRV3C site and His10 tag (cleaved for crystallisation)
T3 sequence (A0A2R9TD79 1-511 K314A): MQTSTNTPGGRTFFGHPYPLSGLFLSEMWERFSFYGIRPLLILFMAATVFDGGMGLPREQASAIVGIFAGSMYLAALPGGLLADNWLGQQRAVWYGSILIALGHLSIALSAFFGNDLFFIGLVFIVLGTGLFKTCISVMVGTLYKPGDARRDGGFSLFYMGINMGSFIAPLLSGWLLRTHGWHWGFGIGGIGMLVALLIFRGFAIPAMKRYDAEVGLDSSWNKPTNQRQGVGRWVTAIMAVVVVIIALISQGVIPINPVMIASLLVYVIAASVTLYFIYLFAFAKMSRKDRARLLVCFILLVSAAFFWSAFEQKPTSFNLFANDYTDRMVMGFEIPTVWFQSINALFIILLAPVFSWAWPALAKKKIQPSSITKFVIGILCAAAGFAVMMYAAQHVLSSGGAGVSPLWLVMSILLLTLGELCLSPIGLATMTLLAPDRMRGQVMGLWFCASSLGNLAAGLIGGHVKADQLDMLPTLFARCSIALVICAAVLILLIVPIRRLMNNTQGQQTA

Compound | Km [1] [µM] | label-free DSF thermal shift at 200-800 μM LZNV (no Kd) (YePEPT [2]) | label-free DSF thermal shift at 200-800 μM LZNV (no Kd) (YePEPT [3]) | IC50 (YePEPT [4]) [µM]
YePEPT (Yersinia enterocolitica subsp. palearctica YE-P4; K314A) | 57.3 |  |  | 
CC(C)[C@H](NC(=O)[C@@H](N)CCCCNC(=O)OCc1ccc([N+](=O)[O-])cc1)C(=O)O [LZNV, Lys[Z(NO2)]-Val] |  | This variant shows a concentration-dependent stabilisation by LZNV similar to YePEPT^K314A | YePEPT^K314A-S412A still showed a strong dose-dependent stabilisation by LZNV | 7.6
